Columns and labels:
Experiment in all cases: Test C preemergence
Type in all cases: in vivo
[1] = system: crabgrass, large (large crabgrass, Digitaria sanguinalis); conditions: for Plant response rating, Crabgrass, Large: scale 0 to 100, 0 no effect, 100 complete control
Procedure, shortened: (§1)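 Seeds in loam-sand soil treated preemergence, or plants in peat-based medium sprayed postemergence at 2–18 cm (1- to 4-leaf stage), with compound in a non-phytotoxic solvent mixture containing surfactant. Greenhouse-held 13–15 d, then visually rated against controls on a 0–100 scale (0 = no effect, 100 = complete control); dash = not tested.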

[2] = system: velvetleaf (Abutilon theophrasti); conditions: for Plant response rating, Velvetleaf: scale 0 to 100, 0 no effect, 100 complete control
Procedure, shortened: as §1

[3] = system: blackgrass (Alopecurus myosuroides); conditions: for Plant response rating, Blackgrass: scale 0 to 100, 0 no effect, 100 complete control
Procedure, shortened: as §1

[4] = system: ragweed (common ragweed, Ambrosia elatior); conditions: for Plant response rating, Ragweed: scale 0 to 100, 0 no effect, 100 complete control
Procedure, shortened: as §1

[5] = system: morningglory (Ipomoea coccinea); conditions: for Plant response rating, Morningglory: scale 0 to 100, 0 no effect, 100 complete control
Procedure, shortened: as §1

[6] = system: johnsongrass (Sorghum halepense); conditions: for Plant response rating, Johnsongrass: scale 0 to 100, 0 no effect, 100 complete control
Procedure, shortened: as §1

[7] = system: ryegrass, Italian (Italian ryegrass, Lolium multiflorum); conditions: for Plant response rating, Ryegrass, Italian: scale 0 to 100, 0 no effect, 100 complete control
Procedure, shortened: as §1

[8] = system: waterhemp (common waterhemp, Amaranthus rudis); conditions: for Plant response rating, Waterhemp: scale 0 to 100, 0 no effect, 100 complete control
Procedure, shortened: as §1

[9] = system: oilseed rape (Brassica napus); conditions: for Plant response rating, Oilseed Rape: scale 0 to 100, 0 no effect, 100 complete control
Procedure, shortened: as §1

[10] = system: soybean (Glycine max); conditions: for Plant response rating, Soybean: scale 0 to 100, 0 no effect, 100 complete control
Procedure, shortened: as §1

[11] = system: nutsedge, yellow (yellow nutsedge, Cyperus esculentus); conditions: for Plant response rating, Nutsedge, Yellow: scale 0 to 100, 0 no effect, 100 complete control
Procedure, shortened: as §1

[12] = system: pigweed (Amaranthus retroflexus); conditions: for Plant response rating, Pigweed: scale 0 to 100, 0 no effect, 100 complete control
Procedure, shortened: as §1

[13] = system: barnyardgrass (Echinochloa crus-galli); conditions: for Plant response rating, Barnyardgrass: scale 0 to 100, 0 no effect, 100 complete control
Procedure, shortened: as §1

[14] = system: foxtail, giant (giant foxtail, Setaria faberii); conditions: for Plant response rating, Foxtail, Giant: scale 0 to 100, 0 no effect, 100 complete control
Procedure, shortened: as §1

[15] = system: wheat (winter wheat, Triticum aestivum); conditions: for Plant response rating, Wheat: scale 0 to 100, 0 no effect, 100 complete control
Procedure, shortened: as §1

[16] = system: corn (Zea mays); conditions: for Plant response rating, Corn: scale 0 to 100, 0 no effect, 100 complete control
Procedure, shortened: as §1

[17] = system: Galium (catchweed bedstraw, Galium aparine); conditions: for Plant response rating, Galium: scale 0 to 100, 0 no effect, 100 complete control
Procedure, shortened: as §1

[18] = 31 g ai/ha, 0 is no effect, 100 is complete control

O=C1NCC(c2ccc(I)cc2)C1C(=O)Nc1cccc(F)c1F (racemic) [Compound 700]
Plant response rating (scale of 0 to 100), Crabgrass, Large [1, 18]: 95
Plant response rating, Crabgrass, Large ([1]; 62 g ai/ha): 95
Plant response rating, Crabgrass, Large ([1]; 125 g ai/ha): 95
Plant response rating, Crabgrass, Large ([1]; 250 g ai/ha): 98
Plant response rating (scale of 0 to 100), Velvetleaf [2, 18]: 0
Plant response rating, Velvetleaf ([2]; 62 g ai/ha): 0
Plant response rating, Velvetleaf ([2]; 125 g ai/ha): 20
Plant response rating, Velvetleaf ([2]; 250 g ai/ha): 40
Plant response rating (scale of 0 to 100), Blackgrass [3, 18]: 20
Plant response rating, Blackgrass ([3]; 62 g ai/ha): 55
Plant response rating, Blackgrass ([3]; 125 g ai/ha): 60
Plant response rating, Blackgrass ([3]; 250 g ai/ha): 85
Plant response rating (scale of 0 to 100), Ragweed [4, 18]: 10
Plant response rating, Ragweed ([4]; 62 g ai/ha): 50
Plant response rating, Ragweed ([4]; 125 g ai/ha): 75
Plant response rating, Ragweed ([4]; 250 g ai/ha): 75
Plant response rating (scale of 0 to 100), Morningglory [5, 18]: 0
Plant response rating, Morningglory ([5]; 62 g ai/ha): 0
Plant response rating, Morningglory ([5]; 125 g ai/ha): 0
Plant response rating, Morningglory ([5]; 250 g ai/ha): 0
Plant response rating (scale of 0 to 100), Johnsongrass [6, 18]: 100
Plant response rating, Johnsongrass ([6]; 62 g ai/ha): 0
Plant response rating, Johnsongrass ([6]; 125 g ai/ha): 10
Plant response rating, Johnsongrass ([6]; 250 g ai/ha): 60
Plant response rating (scale of 0 to 100), Ryegrass, Italian [7, 18]: 0
Plant response rating, Ryegrass, Italian ([7]; 62 g ai/ha): 20
Plant response rating, Ryegrass, Italian ([7]; 125 g ai/ha): 35
Plant response rating, Ryegrass, Italian ([7]; 250 g ai/ha): 45
Plant response rating (scale of 0 to 100), Waterhemp [8, 18]: 10
Plant response rating, Waterhemp ([8]; 62 g ai/ha): 65
Plant response rating, Waterhemp ([8]; 125 g ai/ha): 75
Plant response rating, Waterhemp ([8]; 250 g ai/ha): 70
Plant response rating (scale of 0 to 100), Oilseed Rape [9, 18]: 0
Plant response rating, Oilseed Rape ([9]; 62 g ai/ha): 30
Plant response rating, Oilseed Rape ([9]; 125 g ai/ha): 60
Plant response rating, Oilseed Rape ([9]; 250 g ai/ha): 50
Plant response rating (scale of 0 to 100), Soybean [10, 18]: 100
Plant response rating, Soybean ([10]; 62 g ai/ha): 0
Plant response rating, Soybean ([10]; 125 g ai/ha): 15
Plant response rating, Soybean ([10]; 250 g ai/ha): 0
Plant response rating (scale of 0 to 100), Nutsedge, Yellow [11, 18]: 0
Plant response rating, Nutsedge, Yellow ([11]; 62 g ai/ha): 0
Plant response rating, Nutsedge, Yellow ([11]; 125 g ai/ha): 0
Plant response rating, Nutsedge, Yellow ([11]; 250 g ai/ha): 0
Plant response rating (scale of 0 to 100), Pigweed [12, 18]: 0
Plant response rating, Pigweed ([12]; 62 g ai/ha): 15
Plant response rating, Pigweed ([12]; 125 g ai/ha): 50
Plant response rating, Pigweed ([12]; 250 g ai/ha): 65
Plant response rating (scale of 0 to 100), Barnyardgrass [13, 18]: 75
Plant response rating, Barnyardgrass ([13]; 62 g ai/ha): 85
Plant response rating, Barnyardgrass ([13]; 125 g ai/ha): 90
Plant response rating, Barnyardgrass ([13]; 250 g ai/ha): 95
Plant response rating (scale of 0 to 100), Foxtail, Giant [14, 18]: 80
Plant response rating, Foxtail, Giant ([14]; 62 g ai/ha): 85
Plant response rating, Foxtail, Giant ([14]; 125 g ai/ha): 90
Plant response rating, Foxtail, Giant ([14]; 250 g ai/ha): 90
Plant response rating (scale of 0 to 100), Wheat [15, 18]: 0
Plant response rating, Wheat ([15]; 62 g ai/ha): 0
Plant response rating, Wheat ([15]; 125 g ai/ha): 0
Plant response rating, Wheat ([15]; 250 g ai/ha): 70
Plant response rating (scale of 0 to 100), Corn [16, 18]: 0
Plant response rating, Corn ([16]; 62 g ai/ha): 0
Plant response rating, Corn ([16]; 125 g ai/ha): 10
Plant response rating, Corn ([16]; 250 g ai/ha): 50
Plant response rating (scale of 0 to 100), Galium [17, 18]: 0
Plant response rating, Galium ([17]; 62 g ai/ha): 0
Plant response rating, Galium ([17]; 125 g ai/ha): 50
Plant response rating, Galium ([17]; 250 g ai/ha): 40
